Test results reported in ChEMBL document CHEMBL1148863, “Discovering new inhibitors of bacterial glucosamine-6P synthase (GlmS) by docking simulations” (Bioorg Med Chem Lett, 2007).

Key:
[1] = Inhibition of bacterial glucosamine-6-phosphate synthase at 100 uM by colorimetric morgan-elson assay
[2] = Inhibition of bacterial glucosamine-6-phosphate synthase by colorimetric morgan-elson assay

inhibition [1]	IC50 [2]	SMILES
0%	–	O=C(O)CC(Sc1ccc(C(=O)O)cc1)C(=O)O (stereo not drawn)
70%	70 µM	COc1ccccc1C1Oc2ccccc2C2=C1C(c1ccccc1OC)n1nc(C)nc1N2 (stereo not drawn)
0%	–	COC(=O)c1sc(N2C(=O)C(O)=C(C(=O)c3ccccc3)C2c2ccc(C)cc2)nc1C (stereo not drawn)
85%	56 µM	N[C@@H](CO)[C@@H](O)[C@H](O)[C@H](O)COP(=O)(O)O
0%	–	COc1ccc(-c2sc(C(=O)O)cc2CC(=O)O)cc1
0%	–	COC(=O)c1sc(N2C(=O)C(O)=C(C(=O)c3ccc(Cl)cc3)C2c2ccccc2F)nc1C (stereo not drawn)
20%	–	O=C(C1=C(O)C(=O)N(Cc2cccnc2)C1c1cccc(Oc2ccccc2)c1)c1ccco1 (stereo not drawn)
–	120 µM	COc1cc2ccnc3c2c(c1OC)NC=C3 [AAPTAMINE]
0%	–	O=C(O)C[C@@H](NS(=O)(=O)c1ccccc1)C(=O)O
70%	70 µM	CCOC(=O)c1sc(N2C(=O)C(O)=C(C(=O)c3ccc(F)cc3)C2c2ccc(OC)cc2)nc1C (stereo not drawn)
0%	–	O=C(O)Cc1csc(NC(=O)CSc2ccccn2)n1
0%	–	O=S(=O)(NC(NS(=O)(=O)c1ccccc1)c1ccc(Br)cc1)c1ccccc1
70%	70 µM	CCOC(=O)c1sc(N2C(=O)C(O)=C(C(=O)c3ccc(F)cc3)C2c2cccc(Br)c2)nc1C (stereo not drawn)

SMILES	inhibition [1]	IC50 [2]
Nc1nc[nH]n1 [AMITROLE]	–	100 µM
